In patent US6387415B1, “Sequestered metal biocides using ionic polymeric stabilizing agents” (Bio-Lab, Inc., priority 1995, dated 2002):
Like-named read-outs stand apart in the source and are kept apart here.

Experiments:
Assay type in all cases: cell-based
Chlorella sp. = assay: MIC study against algae (visual growth after two weeks); set-up: key: (−) indicates no algae growth was seen; (+) indicates algae growth was seen
Description: (§1) MIC data gives the minimum concentration of biocide needed to prevent growth of the algae in a culture.
(§2) The MIC studies are performed in sterile glassware using both viability and sterility controls. An algae suspension is added to test tubes containing the appropriate amounts of test biocide and the tubes are incubated for two weeks under fluorescent lights (on a “12 hour on”/“12 hour off” lighting regimen). The cultures are then measured by visual observation to determine the presence of living algae.

Phormidium inudatum = assay: as above; set-up: key: (−) indicates no algae growth was seen; (+) indicates algae growth was seen
Description: as §1, §2

Phormidium sp. = assay: as above; set-up: key: (−) indicates no algae growth was seen; (+) indicates algae growth was seen
Description: as §1, §2

E. Coli = assay: MIC study against bacteria on microtiter plates; set-up: key: (−) indicates no bacterial growth was seen; (+) indicates bacterial growth was seen
Description: (§3) MIC data gives the minimum concentration of biocide needed to prevent growth of bacteria in a culture. Individual MIC's were determined by screening on microtiter plates. In order to determine the MIC's, 50 μl of phosphate water is added to each row in columns 2-12. Next, 100 μl of a biocide is added to column […]). Fifty microliters of the biocide is removed from column 1 and serially diluted from columns 2-11 using an eight tip pipettor (octapette). Finally, 50 μl of microbial inoculum is added to columns 1-11 (all rows) and column 12 (row A and E only). Column 12 serves as the row for sterility and viability controls. Bacterial inoculua contain about 1×10^9 colony forming units (cfu) per ml are prepared in 1⁄5 strength Nutrient broth. Bacterial microtiter plates are incubated at 37° C. for 48 hours. MIC's are determined by visual observation of the plates.

S. aureus = assay: MIC study against bacteria on microtiter plates; set-up: key: (−) indicates no bacterial growth was seen; (+) indicates bacterial growth was seen
Description: as §3

O=S(=O)([O-])[O-].[Cu+2] [Unsequestered Copper, copper sulfate]
algae growth, MIC results against Chlorella sp. (Chlorella sp.): −
algae growth, MIC results against Phormidium inudatum (Phormidium inudatum): −
algae growth, MIC results against Phormidium sp. (Phormidium sp.): −
bacterial growth, MIC results against E. Coli (E. Coli): − and +
bacterial growth, MIC results against S. aureus (S. aureus): − and +

[Ag] [Unsequestered Silver]
bacterial growth, MIC results against E. Coli (E. Coli; Silver Conc. 0.39 ppm): +
bacterial growth, MIC results against E. Coli (E. Coli; Silver Conc. 1.56 ppm): +
bacterial growth, MIC results against E. Coli (E. Coli; Silver Conc. 3.1 ppm): −
bacterial growth, MIC results against E. Coli (E. Coli; Silver Conc. 12.5 ppm): −
bacterial growth, MIC results against E. Coli (E. Coli; Silver Conc. 25 ppm): −
bacterial growth, MIC results against S. aureus (S. aureus; Silver Conc. 0.39 ppm): +
bacterial growth, MIC results against S. aureus (S. aureus; Silver Conc. 0.78 ppm): +
bacterial growth, MIC results against S. aureus (S. aureus; Silver Conc. 1.56 ppm): −
bacterial growth, MIC results against S. aureus (S. aureus; Silver Conc. 12.5 ppm): −
bacterial growth, MIC results against S. aureus (S. aureus; Silver Conc. 25 ppm): −
